Source: US5834462A, “Tricyclic heterocyclic sulfonamide and sulfonic ester derivatives” (Eisai Co., Ltd., priority 1993, dated 1998)
Converted amounts (≈) assume the structure as drawn.

What was measured:
[1] = tested on: KB cells (human nasopharyngeal cancer cells); experiment: in vitro Antitumor test on KB cells (MTT); format: cell-based; settings: 72 h, 3 days incubation
Experimental: in vitro Antitumor test on KB cells (human nasopharyngeal cancer cells)
KB cells suspended in an RPMI1640 medium (mfd. by Nissui Seiyaku K. K.), which contained 10% of fetal calf serum, 100 U/mi of penicillin, 100 μg/ml of streptomycin, 5×10^-5 M of mercaptoethanol and 1 mM of sodium pyruvate, were inoculated in 1.25×10^3 portions (0.1 ml) into wells of a 96-well flat-bottomed microplate and then incubated in an incubator containing 5% of carbon dioxide at 37° C. for a day.
A compound of the present invention was dissolved in dimethyl sulfoxide in a concentration of 20 mg/ml and diluted with a 10% fetal calf serum-RPMI1640 culture medium to a concentration of 100 μg/ml. By using this concentration as the highest level, threefold serial dilution was performed with a 10% fetal calf serum-RPMI1640 culture medium. Then it was added in 0.1 ml portions into the wells of the above-mentioned plate wherein the KB cells had been incubated followed by incubation in the incubator containing 5% of carbon dioxide at 37° C. for 3 days.
After incubating, an MTT (3-(4,5-dimethylthiazol-2-yl)-2,5-diphenyltetrazolium bromide) solution (3.3 mg/ml) was added in 0.05 ml portions into the wells and the incubation was effected for additional 1 hour. After sucking off the supernatant from each well, the formazane thus formed was dissolved in 0.1 ml of dimethyl sulfoxide. Then the absorbance at 540 nm was measured with a microplate reader and employed as an indication of the vital cell count. In accordance with the following equation, the inhibitory ratio was calculated and the 50% inhibitory concentration (IC50) of the test compound was determined. [formula] T: absorbance of a well containing the test commpound. C: absorbance of a well containing no test compound.

[2] = tested on: M5076 (mouse reticulum cell sarcoma); experiment: in vivo antitumor test on M5076 transplanted in BDF1 mice; settings: intraperitoneal, 4 times every other day from 10th day
Description: in vivo antitumor test on M5076 (mouse reticulum cell sarcoma)
1×10^6 M5076 cells were subcutaneously transplanted into the lateral parts of BDF1 mice (aged 6 to 9 weeks, female). A compound of the present invention was suspended in physiological saline containing 3.5% of dimethyl sulfoxide and 6.5% of Tween 80 and a given amount of the obtained suspension was intraperitoneally administered to the animals 4 times from the 10th day after the transplantation once a day every other day. The control group comprised 10 to 12 animals, while the test group comprised 5 or 6 animals.
On the 21st day after the transplantation, tumors were taken out and weighed. Then the tumor multiplication inhibitory ratio of each test group based on the control group was determined in accordance with the following equation. [formula] T: average tumor weight of the test group. C: average tumor weight of the control group.

Row | IC50 [1] [µg/mL] | Compound | further results
1 | 0.1 (≈ 0.284 µM) | COc1ccc(S(=O)(=O)Nc2cccc3c2[nH]c2ccccc23)cc1 [Example 2, N-(9H-Carbazol-1-yl)-4-methoxybenzenesulfornamide] | –
2 | 0.17 (≈ 0.447 µM) | COc1ccc(S(=O)(=O)Nc2cccc3c(=O)c4ccccc4[nH]c23)cc1 [Example 4, N-(9(10H)-Acridinon-4-yl)-4-methoxyhenzenesulfonamide] | –
3 | 0.08 (≈ 0.217 µM) | COc1ccc(S(=O)(=O)Nc2cccc3c2Nc2ccccc2O3)cc1 [Example 5, 4-Methoxy-N-(10H-phenoxazin-1-yl)benzenesulfonamide] | –
4 | 0.09 (≈ 0.237 µM) | COc1ccc(S(=O)(=O)Nc2cccc3c2Nc2ccccc2CC3)cc1 [Example 6, N-(10,11-Dihydro-5H-dibenz(b,f)azepin-4-yl)-4-methoxybenzenesulfonamide] | –
5 | 0.23 (≈ 0.608 µM) | COc1ccc(S(=O)(=O)Nc2cccc3c2Nc2ccccc2C=C3)cc1 [Example 9, N-(5H-Dibenz[b,f]azepin-4-yl)-4-methoxybenzene-sulfonamilde] | –
6 | 0.25 (≈ 0.631 µM) | COc1ccc(S(=O)(=O)Nc2cccc3c2NC(=O)c2ccccc2O3)cc1 [Example 12, N-(Dibenrz(b,f)(1,4)oxazepin-11(10H)-on-9-yl)-4-methoxybenzenelfonamide] | –
7 | 0.026 (≈ 0.0713 µM) | COc1ccc(S(=O)(=O)Nc2cccc3cc4ccccc4nc23)cc1 [Example 14, N-(4-Acridinyl)-4-methoxybenzenesulfonamide] | –
8 | 0.15 (≈ 0.406 µM) | COc1ccc(S(=O)(=O)Nc2cccc3c2Nc2ncccc2O3)cc1 [Example 15, 4-Methoxy-N-(10H-pyrido(3,2-b)(1,4)benzoxazin-9-yl)-benzenesulfonamide] | –
9 | 0.022 (≈ 0.0596 µM) | COc1ccc(S(=O)(=O)Nc2cccc3c2Nc2cccnc2O3)cc1 [Example 16, 4-Methoxy-N-(5H-pyrido(2,3-b)(1,4)benzoxazin-6-yl)-benzenesulfonamide] | –
10 | 0.11 (≈ 0.277 µM) | COc1ccc(S(=O)(=O)Nc2cccc3c(=O)c4cc(O)ccc4[nH]c23)cc1 [Example 20, N-(7-Hydroxy-9(10H)-acridinon-4-yl)-4-methoxybenzene-sulfonamide] | –
11 | 0.17 (≈ 0.442 µM) | COc1ccc(S(=O)(=O)Nc2cccc3c2Nc2ccc(O)cc2O3)cc1 [Example 22, N-(7-Hvdroxy-10H-phenoxain-1-yl)-4-methoxybenzene-sulfonamide] | –
12 | 0.0061 (≈ 0.016 µM) | COc1ccc(S(=O)(=O)Nc2cccc3oc4cc(=O)ccc-4nc23)cc1 [Example 24, 4-Methoxy-N-(3H-phenoxazin-3-on-9-yl)benzene-sulfonamide] | –
13 | 0.016 (≈ 0.0402 µM) | COc1ccc(S(=O)(=O)Nc2cccc3sc4cc(=O)ccc-4nc23)cc1 [Example 25, 4-Methoxy-N-(3-phenothiazin-3-on-9-yl)benzene-sulfonamide] | –
14 | 0.15 (≈ 0.376 µM) | COc1ccc(S(=O)(=O)Nc2cccc3c2Nc2ccccc2CS3)cc1 [Example 26, N-(5,11-Dihydrobenzo(b,e)(1,4)thiazepin-6-yl)-4-metboxybenzenesulfonamide] | –
15 | 0.11 (≈ 0.288 µM) | COc1ccc(S(=O)(=O)Nc2cccc3c2N(C)c2ccccc2O3)cc1 [Example 29, 4-Methoxy-N-(10-methyl-10H-phenoxazin-1-yl)benzene-sulfonamide] | –
16 | 0.27 (≈ 0.683 µM) | COc1ccc(S(=O)(=O)Nc2cccc3c2Nc2ccc(C)cc2CN3)cc1 [Example 31, N-10,11-Dihydro-2-methyl-5H-dihenzn(b,e)(1,4)-diazepin-6-yl)-4-methoxyhenenesulfonamide] | –
17 | 0.043 (≈ 0.108 µM) | COc1ccc(S(=O)(=O)Nc2cccc3c2Nc2ccc(CO)cc2O3)cc1 [Example 33, N-(7-Hydroxymethyl-10-phenoxazin-1-yl)-4-methoxy-benzenesulfonamide] | –
18 | 0.25 (≈ 0.677 µM) | Nc1ccc(S(=O)(=O)Nc2cccc3c2Nc2ccccc2S3)cc1 [Example 34, 4-Amino-N-(10-phenothiazin-1-yl)benzenesulfonamide] | –
19 | 0.25 (≈ 0.647 µM) | COc1ccc(S(=O)(=O)Nc2cccc3c2Nc2cncnc2S3)cc1 [Example 35, 4-Melthoxy-N-(5H-pyrimido(4,5-b)(1,4)benzothizin-6-yl)benzenesulfonamide] | –
20 | 0.047 (≈ 0.123 µM) | Cc1ccc(S(=O)(=O)Nc2cccc3c2Nc2ccc(O)cc2CO3)cc1 [Example 38, N-(5,11-Ditiydro-2-hydroxydihenz(b,e)(1,4)oxazepin-6-yl)-4-methylbenzenesulfonamide] | –
21 | 0.26 (≈ 0.624 µM) | COc1ccc(S(=O)(=O)Nc2cc(F)cc3c2Nc2ccc(O)cc2CO3)cc1 [Example 39, N-(5,11-Dihydro-8-fluoro-2-hdroxydihenz(b,e)(1,4)-oxazepin-6-yl)-4-methoxybenrzenesilfonamide] | –
22 | 0.032 (≈ 0.0837 µM) | COc1ccc(S(=O)(=O)Nc2cccc3c2Nc2ccccc2OC3)cc1 [Example 40, N-(5,11-Dihydrodibenz(b,e)(1,4)oxalelpin-4-yl)-4-methoxybenzenesulfonamide] | –
23 | 0.13 (≈ 0.335 µM) | Cc1ccc(S(=O)(=O)Nc2cccc3c2Nc2ccc(O)cc2CO3)s1 [Example 42, N-(5,11-Dihydro-2-hydroxydihenz(b,e)(1,4)oxazepin-6-yl)-5-methyl-2-thiopbhenesulfonamide] | –
24 | 0.22 (≈ 0.502 µM) | COc1ccc(S(=O)(=O)Nc2cccc3c2Nc2ccc(NC(C)=O)cc2CN3)cc1 [Example 43, N-(2-Acetylamino-10,11-dibydro-5H-dibhenz(b,e)(1,4)-diazepin-6-yl)-4-methoxybenzenesulfonamide] | –
25 | 0.077 (≈ 0.169 µM) | COc1ccc(S(=O)(=O)Nc2cccc3c2Nc2ccc(OCCCO)cc2CN3)cc1 [Example 44, N-(10,11-Dihydro-2-(3-hydroxypropyloxy)-5H-dibenzo-(b,e)(1,4)(diazepin-6-yl)4-metbhoxybenzenesulfonamide] | –
26 | 0.016 (≈ 0.0384 µM) | COc1ccc(S(=O)(=O)Nc2cccc3c2Nc2ccc(F)c(O)c2CO3)cc1 [Example 45, N-(5,11-Dihydro-2-fluoro-1-hydroxydibenz(b,e)-(1,4)oxazepin-6-yl)-4-methoxybenzenesulfonamide] | –
27 | 0.25 (≈ 0.556 µM) | COc1ccc(S(=O)(=O)Nc2cccc3c2Nc2c(Cl)cc(F)c(O)c2CN3)cc1 [Example 46, N-(4-Chloro-10,11-dihvdro-2-fluoro-1-hvdroxy-5-dibenzo(b,e)(1,4)diazepin-6-yl)-4-methoxybenzene-sulfonamide] | –
28 | 0.078 (≈ 0.188 µM) | COc1ccc(S(=O)(=O)Nc2cccc3c2Nc2ccc(F)c(O)c2CN3)cc1 [Example 47, N-(10,11-Dihydro-2-fluoro-1-hydroxy-5H-dibenzo(b,e)-(1,4)diazepin-6-yl)-4-methoxybenzenesulfonamide] | –
29 | 0.028 (≈ 0.0689 µM) | COc1ccc(S(=O)(=O)Nc2cccc3c2Nc2ccc(C#N)cc2CN3)cc1 [Example 48, N-(2-Cyano-10,11-dihydro-5H-dibenzo(b,e)(1,4)diazepin-6-yl)-4-methoxybenzenesulfonamide] | –
30 | 0.08 (≈ 0.2 µM) | COc1ccc(S(=O)(=O)Nc2cccc3c2Nc2ccc(F)cc2NC3)cc1 [Example 49, N-(10,11-Dihydro-8-fluoro-5H-dibenzo(b,e)(1,4)-diazepin-4-yl)-4-methoxybenzenesulfonamide] | –

Row | Compound | IC50 [1] [µg/mL] | further results
31 | COc1ccc(S(=O)(=O)Nc2cccc3c2Nc2ccccc2S3)cc1 [Example 1, 4-Methoxy-N-(10H-phenothiazin-1-yl)benenesulfonamide] | 0.11 (≈ 0.286 µM) | Inhibitory ratio (tumor weight, 21st day) ([2]; 50 mg/kg/day): 73%; Survival ratio on 21st day ([2]; 50 mg/kg/day): 100%
32 | COc1ccc(S(=O)(=O)Nc2cccc3c2Nc2ccccc2CO3)cc1 [Example 17, N-(5,11-Dihydrpdibenz(b,e)(1,4)oxazepin-6-yl)-4-methoxybenzenesulfonamide] | 0.03 (≈ 0.0784 µM) | Inhibitory ratio (tumor weight, 21st day) ([2]; 100 mg/kg/day): 81%; Survival ratio on 21st day ([2]; 100 mg/kg/day): 100%
33 | COc1ccc(S(=O)(=O)Nc2cccc3c2Nc2cc(F)c(F)cc2S3)cc1 [Example 28, N-(7,8-Difluoro-10-pbenothiazin-1-yl)-4-methoxy-benenesulfonamide] | 0.069 (≈ 0.164 µM) | Inhibitory ratio (tumor weight, 21st day) ([2]; 50 mg/kg/day): 82%; Survival ratio on 21st day ([2]; 50 mg/kg/day): 100%
34 | COc1ccc(S(=O)(=O)Nc2cccc3c2Nc2ccc(O)cc2CO3)cc1 [Example 30, N-(5,11-Dibydro-2-bydroxydihenz(b,e)(1,4)oxazepin-6-yl)-4-methoxybenzensulfonamide] | 0.028 (≈ 0.0703 µM) | Inhibitory ratio (tumor weight, 21st day) ([2]; 100 mg/kg/day): 82%; Survival ratio on 21st day ([2]; 100 mg/kg/day): 100%
35 | CCN1Cc2ccccc2Nc2c(NS(=O)(=O)c3ccc(OC)cc3)cccc21 [Example 41, N-(10,11-Dihydro-10-ethyl-5H-dihenzo(b,e)(1,4)-diazepin-6-yl)-4-meltoxybenzenesulfonamnide] | 0.28 (≈ 0.684 µM) | –
